Reference: ChEMBL document CHEMBL5346914, “Optimization of carbazole carboxamide RORγt agonists: Challenges in improving the metabolic stability and maintaining the agonistic activity” (Eur J Med Chem, 2023)

Tests used:
[1] = Microsomal stability in mouse liver microsome assessed as half life at 1 uM preincubated for 10 mins followed by NADPH addition measured upto 60 mins by HPLC-MS/MS analysis; assay type: ADME; settings: liver microsomes, time < 70 min
[2] = target: T1, Nuclear receptor ROR-gamma (Homo sapiens, UniProt P51449); assay: Inverse agonist activity at human RORgammat LBD (265 to 507 residues) expressed in Escherichia coli BL21(DE3) cells incubated for 1 hr FRET assay
T1 sequence (P51449 whole entry): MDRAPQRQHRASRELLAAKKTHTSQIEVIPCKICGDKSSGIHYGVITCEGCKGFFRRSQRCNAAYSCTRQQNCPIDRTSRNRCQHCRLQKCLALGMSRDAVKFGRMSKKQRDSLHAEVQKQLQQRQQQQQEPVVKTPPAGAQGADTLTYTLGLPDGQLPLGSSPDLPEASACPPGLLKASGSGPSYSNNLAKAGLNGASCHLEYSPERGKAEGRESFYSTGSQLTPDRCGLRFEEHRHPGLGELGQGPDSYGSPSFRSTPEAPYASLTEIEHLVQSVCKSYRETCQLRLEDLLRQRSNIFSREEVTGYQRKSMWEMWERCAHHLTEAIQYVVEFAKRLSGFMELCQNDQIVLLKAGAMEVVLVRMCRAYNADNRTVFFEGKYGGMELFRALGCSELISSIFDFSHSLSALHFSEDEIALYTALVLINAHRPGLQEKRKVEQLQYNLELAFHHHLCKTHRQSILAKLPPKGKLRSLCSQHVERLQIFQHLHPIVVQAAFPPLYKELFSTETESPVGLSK

[3] = target: T1, Nuclear receptor ROR-gamma; assay: Agonist activity at human RORgammat LBD (265 to 507 residues) expressed in Escherichia coli BL21(DE3) cells incubated for 1 hr FRET assay
[4] = target: T1, Nuclear receptor ROR-gamma; assay: Agonist activity at Gal4-fused human RORgammat LBD expressed in HEK293T cells assessed as luciferase activity incubated for 16 to 20 hrs by luciferase reporter gene assay; assay type: cell-based

| Compound | half-life at 1 µM [1] | EC50 [3] | other results |
| --- | --- | --- | --- |
| CCn1c2ccc(CC3CC3)cc2c2cc(C(=O)N[C@H](COC)c3ccc(S(=O)(=O)CC)cc3)ccc21 | 40.8 min |  |  |
| CCn1c2ccc(CC3COC3)cc2c2cc(C(=O)NCc3ccc(S(=O)(=O)CC)cc3)ccc21 |  |  | IC50 [2]: 6590 nM |
| CCn1c2ccc(CC(C)C(F)(F)F)cc2c2cc(C(=O)NCc3ccc(S(=O)(=O)CC)cc3)ccc21 (stereo unspecified) | 26.2 min |  |  |
| CCn1c2ccc(CC3CC3)cc2c2cc(C(=O)NCc3ccc(S(=O)(=O)CC)cc3)ccc21 | 48.8 min |  |  |
| CCn1c2ccc(OC(C)C)cc2c2cc(C(=O)NCc3ccc(S(C)(=O)=O)cn3)ccc21 | 17 min |  |  |
| CCn1c2ccc(C(=O)NCc3ccc(S(=O)(=O)CC)cc3)cc2c2c(OC(C)C)cccc21 |  | 29.4 nM |  |
| CCn1c2ccc(CC3CC3)cc2c2cc(C(=O)N[C@@H](COC)c3ccc(S(=O)(=O)CC)cc3)ccc21 | > 154 min |  |  |
| CCS(=O)(=O)c1ccc(C(COC)NC(=O)c2ccc3c(c2)c2cc(CC4CC4)ccc2n3CCF)cc1 (racemic) | 37.1 min | 28.3 nM | EC50 [4]: 348 nM |
| CCn1c2ccc(OCC(C)C)cc2c2cc(C(=O)NCc3ccc(S(=O)(=O)CC)cc3)ccc21 | 20.4 min |  |  |
| CCn1c2ccc(OC(C)C)cc2c2cc(C(=O)NCc3ccc(S(=O)(=O)CC)cn3)ccc21 | 18.2 min | 5.6 nM |  |
| CCn1c2ccc(CC3CCC3)cc2c2cc(C(=O)NCc3ccc(S(=O)(=O)CC)cc3)ccc21 |  | 12.6 nM |  |
| CCn1c2ccc(CC(C)C)cc2c2cc(C(=O)NCc3ccc(S(=O)(=O)CC)cc3)ccc21 | 26.9 min | 10.9 nM |  |
| CCn1c2ccc(CC3CC3)cc2c2cc(C(=O)NCc3ccc(S(=O)(=O)CC)cn3)ccc21 |  | 9.7 nM |  |
| CCn1c2ccc(CC3CC3)cc2c2cc(C(=O)NCc3ccc(S(C)(=O)=O)cn3)ccc21 |  | 12.5 nM |  |
| CCn1c2ccc(OC(C)C)cc2c2cc(C(=O)NC(CO)c3ccc(S(=O)(=O)CC)cc3)ccc21 (racemic) | 17.9 min |  |  |
| CCn1c2ccc(OC(C)C(F)(F)F)cc2c2cc(C(=O)NCc3ccc(S(=O)(=O)CC)cc3)ccc21 (stereo unspecified) | 19.9 min |  |  |
| CCn1c2ccc(OC(C)C)cc2c2cc(C(=O)NCc3ccc(S(C)(=O)=O)cc3)ccc21 | 14.8 min | 12.1 nM |  |
| CCS(=O)(=O)c1ccc(CNC(=O)c2ccc3c(c2)c2cc(OC(C)C)ccc2n3CCF)cc1 | 14.1 min | 7.8 nM |  |
| CCn1c2ccc(CN(C)C)cc2c2cc(C(=O)NCc3ccc(S(=O)(=O)CC)cc3)ccc21 |  | 181 nM |  |
| CCn1c2ccc(CC3CC3)cc2c2cc(C(=O)NC(COC)c3ccc(S(=O)(=O)CC)cc3)ccc21 (racemic) | > 145 min |  |  |
| CCn1c2ccc(CC3CC3)cc2c2cc(C(=O)NC(CO)c3ccc(S(=O)(=O)CC)cc3)ccc21 (racemic) | 41.4 min | 14.7 nM |  |
| CCn1c2ccc(CC(C)(C)F)cc2c2cc(C(=O)NCc3ccc(S(=O)(=O)CC)cc3)ccc21 | 20.8 min | 10.3 nM |  |
| CCn1c2ccc(OC3CC3)cc2c2cc(C(=O)NCc3ccc(S(=O)(=O)CC)cc3)ccc21 | 16.5 min |  |  |
| CCn1c2ccc(OC3CCC3)cc2c2cc(C(=O)NCc3ccc(S(=O)(=O)CC)cc3)ccc21 | 16.4 min |  |  |
| CCS(=O)(=O)c1ccc(CNC(=O)c2ccc3c(c2)c2cc(CC4CC4)ccc2n3CCF)cc1 | 80.4 min | 15.7 nM | EC50 [4]: 245 nM |
| CCn1c2ccc(OC(C)C)cc2c2cc(C(=O)NCc3ccc(S(=O)(=O)CC)cc3)ccc21 | 8.7 min |  |  |
